Here are results for three molecules from patent EP3693362B1, “PARASITIC PLANT GERMINATION REGULATOR” (National University Corporation Tokai National Higher …, priority 2017, dated 2019).

Where two headings read alike, the source gives them in different places.

In one assay the target is T1, AtD14 (Arabidopsis thaliana, UniProt Q9SQR3).
T1 construct: made in house; host or cells: E. coli
T1 sequence (Q9SQR3 1-267): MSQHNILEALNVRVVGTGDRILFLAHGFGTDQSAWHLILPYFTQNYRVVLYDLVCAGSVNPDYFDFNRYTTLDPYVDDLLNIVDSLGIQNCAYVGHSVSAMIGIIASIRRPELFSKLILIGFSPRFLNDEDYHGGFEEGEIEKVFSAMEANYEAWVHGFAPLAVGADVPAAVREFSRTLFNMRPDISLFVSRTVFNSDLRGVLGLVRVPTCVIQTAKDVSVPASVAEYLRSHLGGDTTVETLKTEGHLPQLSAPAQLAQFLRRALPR
The experiment in a line: Affinity for strigolactone receptor, YLG probe competition (fluorescence). In kind it is binding. The text has this:
PTL 1 reports that the affinity of a test compound for the strigolactone receptor can be evaluated by reacting strigolactone with a probe for evaluation of affinity for a strigolactone receptor (e.g., YLG) in the presence of the test compound, and measuring the fluorescence emitted from the decomposition product of YLG. […] The details are as follows.
An Arabidopsis thaliana strigolactone receptor (AtD14) was produced in accordance with a usual method. More specifically, cDNA of the receptor was obtained by RT-PCR, and expression and purification were carried out in E. coli. Additionally, Striga strigolactone receptors were produced by the method disclosed in PTL 1 (ShHTL1: amino acid SEQ ID NO: 1, ShHTL2: amino acid SEQ ID NO: 2, ShHTL3: amino acid SEQ ID NO: 3, ShHTL4: amino acid SEQ ID NO: 4, ShHTL5: amino acid SEQ ID NO: 5, ShHTLS: amino acid SEQ ID NO: 6, ShHTL7: amino acid SEQ ID NO: 7, ShHTLS: amino acid SEQ ID NO: 8, ShHTL9: amino acid SEQ ID NO: 9, ShHTL10: amino acid SEQ ID NO: 10, and ShHTL11: amino acid SEQ ID NO: 11.)
One hundred microliters of a reaction solution containing each of the obtained strigolactone receptors ([…]), YLG (final concentration: […]), and each of the test compounds (final concentration: 0.01 to 10 µM) or the control compound (5-deoxystrigol, final concentration: 0.01 to 10 µM) as a competitive compound (100 mM HEPES, 150 mM NaCl, pH: 7.0, 0.1% DMSO) was prepared and reacted in a 96 black-well plate (Greiner). Sixty after the initiation of the reaction, fluorescence was detected at an excitation wavelength of 480 nm and a detection wavelength of 520 nm using a fluorescence detector (SpectraMax i3, manufactured by Molecular Devices), and the fluorescence intensity was measured.

In the next assay the test system is Orobanche minor. Put plainly: Parasitic plant germination induction test (Orobanche minor seeds). As to conditions: in the dark for 2 days. The format is in vivo. As to the method: (§1) A parasitic plant germination induction test was conducted using the compounds synthesized in Example 1 as test compounds. The seeds of a parasitic plant (Striga hermonthica, Orobanche minor, or Phelipanche aegyptiaca) were suspended in sterilized ultrapure water, and this was dispensed in an amount of 100 µL each (containing about 20 seeds) into a 96-well plate. The test compounds or control compounds (Comparison Compound 1 or synthetic Strigolactone (GR^24: Comparison Compound 2)) dissolved in DMSO were individually added thereto to a final concentration of these compounds of 10 nM to 1 fM (1 × 10^-8 to 1 × 10^-15 M), and allowed to stand in the dark for 2 days. The presence or absence of germination was observed using a microscope, and the germination rate (i.e., number of germinated seeds/total number of seeds) was measured. The higher the germination rate in the parasitic plant germination induction test, or the higher the germination rate at lower concentration, the higher the Striga germination inducing activity.
(§2) In Tables 1 to 6, the concentrations (10 nM, 1 nM, and 0.1 nM) represent compound concentrations. In Tables 1-6, the evaluation criteria for the compounds are as follows: • ++: germination rate of 20% or more • +: germination rate of 5% or more and less than 20% • -: germination rate of less than 5% Table 1

The test system of a further assay is Phelipanche aegyptiaca. Put plainly: Parasitic plant germination induction test (Phelipanche aegyptiaca seeds). In kind it is in vivo. Conditions: in the dark for 2 days. As to the method:
as §1, §2

The mark [1] stands for this setting: AtD14, competition with YLG, test range 0.01 to 10 µM, pH 7.0, read-out: IC50 values of test compounds.

What is called IC50 is the concentration at which inhibition is half-maximal. `CCCCOc1ccc(S(=O)(=O)N2CCN(C(=O)OC3C=CC(=O)O3)CC2)cc1` (centres unmarked) [Compound 13]: the IC50 on AtD14 (setting [1]) was above 10 µM.
For the molecule `CC1=CC(OC=C2C(=O)OC3C4=C(CCCC4(C)C)CC23)OC1=O` (centres unmarked) [5-Ddeoxystriqol, 5-deoxystrigol, reference compound], the IC50 on AtD14 (setting [1]) was 0.44 µM.
For the molecule `CCCCOc1ccc(S(=O)(=O)N2CCN(C(=O)OC3C=C(C)C(=O)O3)CC2)cc1` (centres unmarked) [Compound 1], the “Germination rate 0.1 nM” value in the assay on Orobanche minor (compound concentration 0.1 nM) was “- (germination rate of less than 5%)”. The entries for the “Germination rate 1 nM” value in the assay on Orobanche minor (compound concentration 1 nM) and in the assay with Phelipanche aegyptiaca (compound concentration 1 nM) were “++ (germination rate of 20% or more)” and “- (germination rate of less than 5%)”, respectively. The “Germination rate 10 nM” value in the assay with Orobanche minor (compound concentration 10 nM) is “++ (germination rate of 20% or more)”; with Phelipanche aegyptiaca (compound concentration 10 nM), “+ (germination rate of 5% or more and less than 20%)”. Besides, the IC50 at AtD14 is above 10 µM.
